Series [1] concerns the target nAChR α3/β4 (Homo sapiens, UniProt P30926+P32297). Briefly: cell-based. The conditions noted are these: read-out: Normalized % Inhibition. The procedure: Briefly, cells were incubated with […] dye for 30 min at 37° C.
Series [2] can be described thus: Single i.v. dose toxicity, 14-day observation: general observations and mortality (incl. nicotine tolerability study). It counts as in vivo, Sprague-Dawley rats. The procedure:
Body weight and food consumption was measured daily for 14 days. On day 15, urine was collected on all surviving animals. The animals were euthanized and bled via cardiac puncture, and blood was collected for analysis. Tissues were collected, weighed, evaluated for gross abnormalities, and stored in 10% neutral-buffered formalin.
The animals were weighed prior to dosing and received a single i.v. dose via the lateral tail vein of either test compound or vehicle at a volume of 5 mL/kg.
All animals were observed daily.

Some results are limits rather than exact numbers.

Sequence of nAChR α3/β4 (P32297 32-505): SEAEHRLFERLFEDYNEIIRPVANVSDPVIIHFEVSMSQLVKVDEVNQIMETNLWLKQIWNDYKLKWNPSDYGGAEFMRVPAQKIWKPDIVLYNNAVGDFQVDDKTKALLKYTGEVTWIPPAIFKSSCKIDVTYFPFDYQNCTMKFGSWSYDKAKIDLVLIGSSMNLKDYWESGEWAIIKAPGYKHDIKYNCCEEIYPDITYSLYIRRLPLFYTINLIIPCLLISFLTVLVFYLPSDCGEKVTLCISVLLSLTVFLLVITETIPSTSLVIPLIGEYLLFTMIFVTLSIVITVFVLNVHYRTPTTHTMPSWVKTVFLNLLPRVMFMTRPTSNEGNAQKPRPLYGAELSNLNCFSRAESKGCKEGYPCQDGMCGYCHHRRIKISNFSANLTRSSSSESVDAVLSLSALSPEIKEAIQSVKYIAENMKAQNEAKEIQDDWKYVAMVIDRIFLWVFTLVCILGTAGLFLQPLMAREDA
Sequence of nAChR α3/β4 (P30926 22-498): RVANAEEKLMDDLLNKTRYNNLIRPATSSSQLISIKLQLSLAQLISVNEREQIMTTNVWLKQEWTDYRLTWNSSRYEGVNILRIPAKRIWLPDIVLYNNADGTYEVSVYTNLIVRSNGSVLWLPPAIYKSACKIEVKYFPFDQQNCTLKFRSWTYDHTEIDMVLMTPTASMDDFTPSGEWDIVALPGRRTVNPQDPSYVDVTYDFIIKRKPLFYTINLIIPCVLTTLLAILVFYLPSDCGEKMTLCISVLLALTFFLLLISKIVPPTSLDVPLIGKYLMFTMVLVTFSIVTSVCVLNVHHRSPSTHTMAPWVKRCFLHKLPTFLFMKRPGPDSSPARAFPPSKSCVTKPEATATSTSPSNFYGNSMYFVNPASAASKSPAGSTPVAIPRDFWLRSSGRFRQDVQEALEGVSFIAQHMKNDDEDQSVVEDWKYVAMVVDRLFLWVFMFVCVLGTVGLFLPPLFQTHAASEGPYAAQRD

What is called inhibition is the drop in the measured response relative to a control, in per cent. For `CN1CCCC1c1cccnc1.O=C(O)C(O)C(O)C(=O)O` (single isomer, unassigned; (-)) [Nicotine, (−) Nicotine hydrogen tartrate, reference compound], in series [1], the inhibition at 0.3 µM was determined as 19.1%, the inhibition at 1 µM turned out to be 19%, the inhibition at 10 µM amounted to 95.8% and the inhibition at 30 µM came to 139%. In series [1], the inhibition at 100 µM worked out at 145%, the inhibition at 300 µM came out at 144% and the inhibition at 1000 µM worked out at 142%. The “time until return to normal, tolerability study” value in series [2] (female rats, nicotine 1.25 and 1.0 mg/kg i.v., post dose) is not above 20 min. For the same compound, the “observations after dosing, tolerability study” value in series [2] (female rats, single i.v. nicotine 1.25 mg/kg (1) and 1.0 mg/kg (3)) is recorded as “experienced severe tremors upon completion of dosing”. In addition, the “time until return to normal” value in series [2] (rat, nicotine 0.75 mg/kg i.v., post dose) lay in the range of 15 to 20 min. Besides, the observations after dosing entry in series [2] (rat, single i.v. 0.75 mg/kg nicotine) is “experienced tremors upon compound administration”. In series [2] (rat, single i.v. 0.75 mg/kg nicotine (5 males, 5 females)), the mortality entry was “One male and two females died post dose”.

These data come from US20160030407A1, “Method of Treating Inflammatory Lung Disease” (priority 2010, published 2016).
